Source: patent US5750523A, “Pyridazinone derivatives” (Nissan Chemical Industries, Ltd., priority 1994, dated 1998)
Structures can show the parent of a compound that is named as a salt. Where two headings read alike, the source gives them in different places.

Columns and labels:
[1] = tested on: Rabbit PRP (platelet aggregation); experiment: Antiplatelet aggregation effect, rabbit platelet rich plasma (PRP); type: cell-based, male Japanese white rabbits; conditions: 37° C., 2 minutes incubation, Table III
Method: (§1) Blood was collected from the abdominal aortae of male Wister rats (weight: 200 to 300 g) or male Japanese white rabbits (weight: 1.8 to 2.5 kg) into a syringe containing 1/10 volume 3.8% sodium citrate. The blood thus obtained was centrifuged at 200×g for 7 minutes at room temperature to obtain platelet rich plasma (PRP). Furthermore, the residue was centrifuged at 2000×g for 10 minutes to obtain platelet poor plasma (PPP). The measurement was effected by diluting PRP and PPP to 300,000/mm^3. PRP and PPP were put in cuvettes, and the measurement range of transmittance was adjusted to 0% in the case of PRP and to 100% in the case of PPP. Thereafter, a test sample drug dissolved in 100% dimethyl sulfoxide (DMSO) was added to PRP (the final concentration of DMSO: 0.25%). After incubation at 37° C. and 900 rpm for 2 minutes, an aggregating agent was added to measure an aggregation curve. The antiplatelet aggregation effect of the test sample drug was expressed by a concentration, IC50 (μM), at which the aggregation of control sample was 50% inhibited. The aggregating agents ADP and collagen were used at minimum concentrations (ADP: 5 to 10 μM: collagen : 2.5 to 10 μg/ml) which caused maximum aggregation. The measurement of platelet aggregation was carried out by using NBS HEMA TRACER 601.
(§2) Tables II and III show antiplatelet aggregation effects of test compounds evaluated as IC50 values (μM).
As a comparative compound, the following compound disclosed in reference (d) was used. [drawing 20]

[2] = tested on: rabbit thoracic aorta ring specimen; experiment: Vasodilation effect, relaxation of phenylephrine contraction of rabbit thoracic aorta ring; conditions: Oryctolagus cuniculus; contraction by phenylephrine 10^-5 M; cumulative administration from 3×10^-9 M; papaverine hydrochloride 10^-4 M = 100%; Table IV
Method: By using a rabbit thoracic aorta ring specimen, the relaxation effect of a test sample drug on contraction by phenylephrine (10^-5 M) was evaluated. A test sample drug was administered cumulatively from a concentration of 3×10^-9 M, after the contraction became stable. The results were expressed on the basis that the relaxation effect of papaverine hydrochloride (10^-4 M) was 100%.
The comparative compound was the same as in Test Example 1.

[3] = tested on: Rat PRP (platelet aggregation); experiment: Antiplatelet aggregation effect, rat platelet rich plasma (PRP); type: cell-based, male Wister rats; conditions: 37° C., 2 minutes incubation, Table II
Method: as §1, §2

[4] = Oryctolagus cuniculus, Platelet, 2 min, aggregating agent ADP 5 to 10 μM, read-out: Rabbit PRP IC50, ADP
[5] = Oryctolagus cuniculus, Platelet, 2 min, aggregating agent collagen 2.5 to 10 μg/ml, read-out: Rabbit PRP IC50, Collagen
[6] = Rattus norvegicus, Platelet, 2 min, aggregating agent ADP 5 to 10 μM, read-out: Rat PRP IC50, ADP

Row | SMILES | IC50 [1, 4] [µM] | IC50 [1, 5] [µM] | EC50 [2] [µM] | IC50 [3, 6] [µM] | further results
1 | O=C1CCc2cc(OCCCCc3nnnn3C3CCCCC3)ccc2N1 [Cilostazol, reference compound] | 15 | 2.4 |  |  | 
2 | O=c1[nH]nc(OCCCc2ccc(Cl)cc2)c(NCc2cccnc2)c1Br [Comparative Compound, reference compound] | 0.081 | 0.017 | 0.4 |  | 
3 | O=c1[nH]nc(OCCC(O)c2ccc(Cl)cc2)c(NCc2cccnc2)c1Br (centres unmarked) [Compound No. 1, 4-bromo-6-[3-(4-chlorophenyl)-3-hydroxypropyloxy]-5-(3-pyridylylmethylamino)-3(2H)pyridazinone] | 0.05 | 0.01 | 1.3 | 0.23 | IC50 ([3]; aggregating agent collagen 2.5 to 10 μg/ml, read-out: Rat PRP IC50, Collagen): 0.099 µM
4 | COc1ccc(CNc2c(OCCC(O)c3ccc(Cl)cc3)n[nH]c(=O)c2Br)cc1OC (centres unmarked) [Compound No. 2, 4-bromo-6-[3-(4-chlorophenyl)-3-hydroxypropyloxy]-5-(3,4-dimethoxybenzylamino)-3(2H)pyridazinone] | 0.041 | 0.02 |  | 0.072 | IC50 ([3]; Rattus norvegicus, Platelet, 2 min, aggregating agent collagen 2.5 to 10 μg/ml, read-out: Rat PRP IC50, Collagen): 0.19 µM
5 | O=c1[nH]nc(OCCC(O)c2ccc(Cl)cc2)c(NCc2cccnc2)c1Br (centres unmarked) [Compound No. 65, 4-bromo-6-[3-(4-chlorophenyl)-3-hydroxypropyloxy]-5-(3-pyridylylmethylamino)-3(2H)pyridazinone hydrochloride] |  |  |  |  | IC50 ([3]; aggregating agent ADP 5 to 10 μM, hydrochloride, read-out: Rat PRP IC50, ADP): 0.21 µM; IC50 ([3]; aggregating agent collagen 2.5 to 10 μg/ml, hydrochloride, read-out: Rat PRP IC50, Collagen): 0.22 µM; IC50 ([1]; aggregating agent ADP 5 to 10 μM, hydrochloride, read-out: Rabbit PRP IC50, ADP): 0.053 µM; IC50 ([1]; aggregating agent collagen 2.5 to 10 μg/ml, hydrochloride, read-out: Rabbit PRP IC50, Collagen): 0.019 µM
6 | O=c1[nH]nc(OCC[C@@H](O)c2ccc(Cl)cc2)c(NCc2cccnc2)c1Br [Compound No. 93, 4-bromo-6-[(3R)-3-(4-chlorophenyl)-3-hydroxylpropyloxy]-5-(3-pyridylylmethylamino)-3(2H)pyridazinone hydrochloride] | 0.047 | 0.0097 |  |  | 
